Experimental data taken from publication PMC10154249, “Unique progerin C-terminal peptide ameliorates Hutchinson–Gilford progeria syndrome phenotype by rescuing BUBR1” (Nature Aging, 2023).
“Also recorded” adds a separate entry of the source.

Key:
[1] = test system: BUBR1 in NIH-3T3-progerin cells; assay: Western blot of BUBR1 in progerin-expressing NIH-3T3 cells; format: cell-based
Experimental: (§1) Western blot was performed as previously described. Cells were lysed in 1× Laemmli sample buffer after washing twice in cold PBS without calcium and magnesium. Protein concentrations were determined using the bicinchoninic acid (BCA) protein assay. Protein lysates were subjected to SDS–PAGE, transferred to 0.45-μm pore size hydrophobic PVDF transfer membrane (Merck Millipore), detected with the appropriate primary antibodies coupled with horseradish peroxidase-conjugated corresponding secondary antibodies, and visualized using enhanced chemiluminescence ECL reagent (GE Healthcare). The Tanon 5500 high-definition low-illumination CCD system (Tanon FLI Capture v.1.02) was used to capture chemiluminescent signals.

HGADFN167 cells = assay: Ki67 immunofluorescence of HGADFN167 cells; format: cell-based, human
Experimental: Immunofluorescence was performed as described previously. Cells were plated on cover slips in 12-well plates, left overnight before the treatment. Cells were fixed in 1% formaldehyde in culture medium for 10 min at 37 °C and permeabilized with 0.2% Triton X-100 in PBS for 10 min at room temperature. Cells were washed twice in PBS and blocked for 1 h with 5% BSA in PBS and then incubated with primary antibodies at 4 °C overnight, washed three times in PBS and incubated with secondary antibodies for 1 h at room temperature. Cell nuclei were counterstained with a 500 nM concentration of 4,6-diamidino-2-phenylindole (DAPI) (Sigma). Images were acquired by a fluorescence microscope (OLYMPUS FV-1000, Carl Zeiss LSM880 or Leica DMi8) and analyzed with software NIS-Elements AR v.5.0.1 (Nikon), FLUOVIEW v.4.2b (OLYMPUS), ZEN v.2.3 SP1 (Carl Zeiss) and Leica Application Suite X v.3.6.0.24 (Leica). Cells were quantified by investigators who were blinded to the identity of the analyzed cell.

IMR90 cells = assay: CCK8 cell viability of IMR90 cells; format: cell-based, human; conditions: CCK8, UPCP 0, 10, 20, 30 μM, 0–72 h (also Ki67, CyclinA2, survival rate)
Experimental: Cell viability was assessed using the Cell Counting Kit-8 (CCK8) (APE, catalog no. k1018). The cells were plated in triplicate in 96-well plates (typically 10,000 cells per 100 μl per well) and were incubated with fresh medium for 24 h. Then, the cells were incubated with different concentrations (0 μM, 10 μM, 20 μM, 30 μM) of UPCP for 0 h, 24 h, 48 h or 72 h. CCK8 solution (10 μl) was added to the well for a 2 h incubation at 37 °C. Absorbance was measured at 450 nm with a 96-well plate reader (Tecan Infinite M NANO^+). Data were analyzed and further processed in i-control v.2.0 and GraphPad Prism v.7.

[2] = test system: SAC signal response (p-H3); assay: Western blot of p-H3 (SAC signal response), nocodazole-treated HGADFN003 cells; format: cell-based, human; conditions: nocodazole 200 ng ml^–1 with UPCP
Experimental: as §1

HGPS cells = assay: Cellular uptake of FITC-modified UPCP; format: cell-based, human
Experimental: Fibroblasts from patients with HGPS were obtained from The Progeria Research Foundation Cell and Tissue Bank (http://www.progeriaresearch.org). The following fibroblasts were used: HGADFN003, HGADFN167, HGMDFN090 and HGFDFN168. Human dermal fibroblasts (GM00038 and AG09602) were obtained from Coriell Cell Repository (https://catalog.coriell.org). These cells were characterized by DNA fingerprinting and isozyme detection and were tested by a MycoBlue Mycoplasma Detector (Vazyme Biotech) to exclude mycoplasma contamination before the experiments. […] HGADFN003, HGADFN167, HGMDFN090, HGFDFN168, GM00038 and AG09602 were cultured in DMEM medium with 15% (v/v) fetal bovine serum (VivaCell). […] For bleomycin-induced senescence, IMR90 cells were incubated with the culture medium containing 20 μg ml^–1 Bleomycin (Selleck, catalog no. S1214) for 2 h and analyzed 10 days later, or as otherwise indicated. For doxorubicin-induced senescence, IMR90 cells were treated twice with 100 nM Doxorubicin (Selleck, catalog no. S1208) with a 2 day interval and analyzed 10 days later, or as otherwise indicated. For ionizing radiation (IR)-induced senescence, IMR90 cells were exposed to 10 Gy Gamma rays, and analyzed 10 days later, or as otherwise indicated, the control IMR90 cells were mock irradiated. […]

**Q.** How did the BUBR1 abundance [1] turn out when “H-YGRKKRRQRRRYNLRSRTVLCGTCGQPADKASASGSGAQSPQNCSIM-OH (cysteines drawn unpaired) [UPCP, unique progerin C-terminal peptide]” was run?
**A.** The BUBR1 abundance was “upregulated BUBR1”.

**Q.** And the Ki67 positive cells (HGADFN167 cells; HGADFN167, replicate 1)?
**A.** The Ki67 positive cells was 53%.

**Q.** And the Ki67 positive cells (HGADFN167 cells; HGADFN167, replicate 2)?
**A.** Its Ki67 positive cells is 45%.

**Q.** What about the Ki67 positive cells (HGADFN167 cells; HGADFN167, replicate 3) of the same substance?
**A.** The Ki67 positive cells was 56%.

**Q.** And the “effect on proliferation of normal cells” value (IMR90 cells)?
**A.** Its value is “had little effect on proliferation of IMR90 cells; also recorded: no obvious effect on the proliferation of normal cells”.

**Q.** And the “SAC signal response (p-H3)” value [2]?
**A.** The value was “repaired the SAC signal response”.

**Q.** And the “time to cellular uptake” value (HGPS cells)?
**A.** Its value is ≤ 2 h.
